Data published in US20060229261A1 (priority 2005, published 2006).

How the values were obtained:
[1] = system: patients with chronic constipation; settings: two trials versus placebo; cited from earlier work
[2] = primarily as inactive metabolites; cited from earlier work
[3] = system: patients with functional constipation; test: Randomized, dose escalation, placebo controlled clinical study; assay type: in vivo, human; settings: daily diaries, dose escalation phase (25, 50, 100 mg once daily)
Excerpt: A randomized, dose escalation, placebo controlled study is designed to assess the efficacy of the administered formulation in 60 to 120 patients with functional constipation, defined using the Rome II criteria (modified), i.e., at least […] of two or more of the following symptoms: • i. Straining in >25% of defecations; • ii. Lumpy or hard stools in >25% of defecations; • iii. Sensation of incomplete evacuation in >25% of defecations; • iv. Sensation of anorectal obstruction/blockage in >25% of defecations; • v. Manual maneuvers to facilitate >25%, of defecations (e.g. digital evacuation, support of pelvic floor); and/or • vi. <3 evacuations per week. In addition, loose stools are not present, and there are insufficient criteria for a diagnosis of IBS. Moreover, these patients have no evidence of medical disorders that may cause constipation. Patients are symptomatic on entry in the randomization phase of the study, i.e., in the 8-14 day run-in period, on at least 8 days, which need not be consecutive, patients have lumpy or hard stools in >25% of defecations.
Patients are randomized to one of three groups:
Patients randomized to receive treatments a) or b) will receive 25 mg once daily for the first four weeks, 50 mg once daily for the following four weeks and 100 mg once daily for a further four weeks, providing the previous dose was well tolerated. […]

[4] = system: women patients with IBS-C; settings: 6 mg twice daily; cited from earlier work

For `OC[C@H]1O[C@@H](O[C@@H]2[C@@H](CO)OC(O)(CO)[C@H]2O)[C@H](O)[C@@H](O)[C@H]1O` (mixture of isomers) [lactulose], the “stool frequency and consistency” value [1] is listed as “more effective than placebo”.

For `C[C@H]1O[C@H](O[C@H]2[C@H](O)[C@@H](O)[C@@H](O[C@H]3[C@H](O)[C@@H](O)C(O)O[C@@H]3CO)O[C@@H]2CO)[C@H](O)[C@@H](O)[C@@H]1N[C@H]1C=C(CO)[C@@H](O)[C@H](O)[C@H]1O` (stereo partly shown) [acarbose], the oral dose absorbed [2] is given as “About 35%”.

In the case of `CN(C)C(=N)N=C(N)N` [metformin], the “patient's global impression: answer 'yes' to "do you feel better now after treatment"” value [3] is reported as “at least 50 % of the time”.

In the case of `CCCCCNC(=N)N/N=C/c1c[nH]c2ccc(OC)cc12.O=C(O)/C=C\C(=O)O` [tegaserod, 3-(5-methoxy-1H-indol-3-ylmethylene)-N-pentylcarbazimidamide hydrogen maleate], the “global and individual symptoms” value [4] is listed as “effectively improves global and individual symptoms”.
